From patent publication US20240208953A1, “"Cyclopenta[c]pyrrol Negative Allosteric Modulators of NR2B"” (Novartis AG, priority 2021, published 2024)
pIC50: −log10 of the molar value.

Columns and labels:
NR2B = NR2B (Rattus norvegicus (Rat), UniProt Q00960); assay: NR2B rat cortical neuron calcium influx assay; type: cell-based; conditions: for pIC50: rat cortical neurons, glutamate and glycine stimulated calcium influx
How it was run: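 Primary cortical neurons from E18 Sprague Dawley rat embryos, cultured 2 days, were loaded with Calcium 6 dye in 1.8 mM Ca-HBSS and preincubated with compound 2 h at 37° C. Glutamate plus glycine was added and fluorescence read for 2 min as peak/baseline ratio; duplicate dose-response curves gave IC50 (μM) and maximal inhibition.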

P-glycoprotein (P-gp) = P-glycoprotein (P-gp) (Homo sapiens (Human), UniProt P08183); assay: MDCK-MDR1 permeability / efflux assay; type: in vitro ADME; conditions: for efflux ratio at 120 min, 10 μM: dog, MDCK-MDR1, pH 7.4, efflux ratio, read-out: MDCK-MDR1 ER; for MDCK-MDR1 ER: efflux ratio, 10 μM, 120 min
Protocol: Example 4. Experimental Measurement of Efflux with MDCK-MDR1 Protocol
Cell Culture. MDCK-MDR1 cells were cultured at 37° C. under a 5% CO2 atmosphere, at 95% relative humidity in DMEM containing 10% FBS, penicillin-streptomycin (100 μg/mL), and 2 mM Ala-Gln. Cells were passaged every 3-4 days. For assay purposes, cells were seeded at a density of approximately 265,000 cells/cm^2 of a 96-well Transwell plate (Corning Life Sciences, Acton, MA) and cultured in the same media noted above for a period of 4 days.
Assay. The determination of the apparent permeability (Papp) was performed in both the A→B (apical to basal) and B→A (basal to apical) directions where each compound was assayed in triplicate. The zwitterion bestatin, a poorly permeably compound, was used as marker of monolayer integrity. To initiate the assay, media was aspirated, and the cells and basal chambers were washed three times with Hank's Balanced Salt Solution (HBSS) containing 10 mM HEPES (pH 7.4). Compound test solutions were prepared in triplicate in HBSS containing 10 mM HEPES (pH 7.4) and 0.02% bovine serum albumin (BSA) to a final concentration of 10 μM and centrifuged for 2 min at 4000×g, then applied to the donor compartment at time zero. Additionally, at time zero, a 37° C. solution without test articles (HBSS+10 mM HEPES (pH 7.4) plus 0.02% BSA) was added to the receiver chamber of the Transwell plate. A time zero sample of the donor solution was also sampled for further analysis. The assay was conducted for a period of 120 min at 37° C. without shaking. At the time of assay termination, samples were taken from each donor compartment, and each acceptor compartment of the Transwell plate. To each of the 0 and 120 min samples was added an internal standard solution containing glyburide in water:acetonitrile, 50:50 (v:v). Concentration curves were prepared using a Labcyte Echo in the same matrix noted above. Samples and concentration curve samples were centrifuged for 10 min at 4000×g and subsequently analyzed by mass spectroscopy.
Mass Spectroscopy. Assay samples were loaded onto a RapidFire C4 cartridge by means of a RapidFire autosampler (Agilent, Santa Clara, CA). […] Mass spectroscopy was performed using an AB Sciex AP15500 (Sciex, Frammingham, MA) equipped with a turbo ion spray source. The analyte concentration was calculated from the chromatographic peak area ratio of analyte to internal standard (glibenclamide, m/z 494→169), using Multiquant software V3.0 (Sciex, Framingham, MA).
Calculations. Papp values were determined as
Percent recovery values were determined as:
where VA is the volume of the acceptor (mL), S is the surface area of the membrane, D0 is the donor solution concentration at t=0, D120 is the donor solution concentration at t=120, A120 is the acceptor solution concentration at t=120, and t=time (seconds).
The suitability of a compound for oral dosing and/or for use as a CNS therapeutic is usually conducted by MDCK-MDR1 permeability assay to investigate its drug efflux potential mediated by P-glycoprotein (P-gp). MDCK-MDR1 permeability has been used as a predictor of blood brain barrier permeability in terms of efflux ratio (ER).

hERG = hERG (Homo sapiens (Human), UniProt Q12809); assay: hERG Qpatch assay; type: cell-based
Protocol: Example 3. hERG Qpatch Assay Protocol
This assay was performed by the method described in Skepper et al., J. Med. Chem. 2020, 63, 7773-7816:
hERG expressing cell lines were produced in-house at Novartis using CHO-K1 T-Rex inducible plasmid system (Invitrogen) as described previously (Cao et al., Assay Drug Dev. Technol. 2010, 8, 766-780). Cell lines were maintained in Ham's F12 nutrient mixture containing 10% FBS, blasticidin ([…]; InvivoGen), hygromycin B ([…]; InvivoGen), Zeocin ([…], Invitrogen), and neomycin ([…], Invitrogen) using SelecT automated cell culture system (TAP Biosystems, Cambridge, U.K.). hERG and hCav1.2 channels expression was induced with tetracycline (0.25-1 μg/mL, Invitrogen) at least 24 h prior to the experiment.
hERG currents were recorded using the Qpatch automated patch clamp systems (Sophion Bioscience Inc., North Brunswick, NJ) in the whole (single) cell configuration. hERG expressing CHO-K1 cells were harvested with Detachin (Genlantis) and stored in the modified serum-free SFM-2 media (Life Technologies) at room temperature. The extracellular solution contained (in mM) NaCl (145), KCl (4), MgCl2 (1), CaCl2 (2), and HEPES (10), pH 7.4, with NaOH. The intracellular solution contained KCl (135), MgCl2 (1.75), CaCl2 (5.4), EGTA (10), K2-ATP (4), and HEPES (10), pH 7.2, with KOH. After whole cell configuration was achieved, the cell was held at −90 mV, and a 0.1 s pulse to −50 mV was delivered to measure the leaking current, which was subtracted from the tail current online. Then the cell was depolarized to +20 mV for 4 s (prepulse), followed by a 4 s test pulse to −50 mV to reveal the hERG tail current. To monitor changes in the current amplitude, this voltage protocol was repeatedly applied every 20 s. Test compounds were first diluted in DMSO for six dose-response experiments and then dissolved in the extracellular solution using Freedom EVO liquid handling robotic system (Tecan, Männedorf, Switzerland). The final DMSO concentration in samples was 0.3% v/v. Amitriptyline (Sigma) was tested as a positive control. Data were analyzed using in-house developed MatLab-based program (MathWorks, Natick, MA

[1] = Table 2, hERG expressing CHO-K1 cells

Sequence of P-glycoprotein (P-gp) (P08183 whole entry): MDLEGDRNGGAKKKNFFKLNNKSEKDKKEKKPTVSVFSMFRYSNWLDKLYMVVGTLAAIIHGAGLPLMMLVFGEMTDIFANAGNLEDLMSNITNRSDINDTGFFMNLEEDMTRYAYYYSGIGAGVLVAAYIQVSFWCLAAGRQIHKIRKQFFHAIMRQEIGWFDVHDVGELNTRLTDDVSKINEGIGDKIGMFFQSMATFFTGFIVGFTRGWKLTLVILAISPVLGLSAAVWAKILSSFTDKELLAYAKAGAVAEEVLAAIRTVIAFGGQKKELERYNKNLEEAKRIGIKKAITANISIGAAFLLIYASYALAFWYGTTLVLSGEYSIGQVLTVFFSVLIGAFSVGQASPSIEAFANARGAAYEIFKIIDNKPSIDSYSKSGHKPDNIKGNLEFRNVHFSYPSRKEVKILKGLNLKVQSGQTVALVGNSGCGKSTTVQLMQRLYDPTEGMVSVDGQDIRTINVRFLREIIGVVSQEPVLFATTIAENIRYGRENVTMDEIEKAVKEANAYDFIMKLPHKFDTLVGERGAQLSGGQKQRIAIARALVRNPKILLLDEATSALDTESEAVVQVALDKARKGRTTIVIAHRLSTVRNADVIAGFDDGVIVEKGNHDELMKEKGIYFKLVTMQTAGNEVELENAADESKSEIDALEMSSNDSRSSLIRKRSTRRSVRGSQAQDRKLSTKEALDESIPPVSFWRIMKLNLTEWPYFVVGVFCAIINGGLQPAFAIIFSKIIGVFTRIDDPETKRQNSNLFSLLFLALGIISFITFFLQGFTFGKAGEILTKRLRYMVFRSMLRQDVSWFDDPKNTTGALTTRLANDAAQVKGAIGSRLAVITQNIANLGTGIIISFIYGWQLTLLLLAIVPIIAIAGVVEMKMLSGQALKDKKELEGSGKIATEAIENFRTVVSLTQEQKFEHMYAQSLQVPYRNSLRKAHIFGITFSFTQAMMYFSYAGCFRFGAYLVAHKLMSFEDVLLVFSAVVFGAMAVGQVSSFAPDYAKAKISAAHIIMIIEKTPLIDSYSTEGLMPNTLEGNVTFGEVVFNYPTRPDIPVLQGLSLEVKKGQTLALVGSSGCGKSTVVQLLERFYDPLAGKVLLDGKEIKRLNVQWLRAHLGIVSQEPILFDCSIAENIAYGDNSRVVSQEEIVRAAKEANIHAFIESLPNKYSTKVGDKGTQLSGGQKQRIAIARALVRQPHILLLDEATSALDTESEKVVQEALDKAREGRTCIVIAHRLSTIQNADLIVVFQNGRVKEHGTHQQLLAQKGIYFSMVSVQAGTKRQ
Sequence of NR2B (Q00960 27-1482, other chains not shown): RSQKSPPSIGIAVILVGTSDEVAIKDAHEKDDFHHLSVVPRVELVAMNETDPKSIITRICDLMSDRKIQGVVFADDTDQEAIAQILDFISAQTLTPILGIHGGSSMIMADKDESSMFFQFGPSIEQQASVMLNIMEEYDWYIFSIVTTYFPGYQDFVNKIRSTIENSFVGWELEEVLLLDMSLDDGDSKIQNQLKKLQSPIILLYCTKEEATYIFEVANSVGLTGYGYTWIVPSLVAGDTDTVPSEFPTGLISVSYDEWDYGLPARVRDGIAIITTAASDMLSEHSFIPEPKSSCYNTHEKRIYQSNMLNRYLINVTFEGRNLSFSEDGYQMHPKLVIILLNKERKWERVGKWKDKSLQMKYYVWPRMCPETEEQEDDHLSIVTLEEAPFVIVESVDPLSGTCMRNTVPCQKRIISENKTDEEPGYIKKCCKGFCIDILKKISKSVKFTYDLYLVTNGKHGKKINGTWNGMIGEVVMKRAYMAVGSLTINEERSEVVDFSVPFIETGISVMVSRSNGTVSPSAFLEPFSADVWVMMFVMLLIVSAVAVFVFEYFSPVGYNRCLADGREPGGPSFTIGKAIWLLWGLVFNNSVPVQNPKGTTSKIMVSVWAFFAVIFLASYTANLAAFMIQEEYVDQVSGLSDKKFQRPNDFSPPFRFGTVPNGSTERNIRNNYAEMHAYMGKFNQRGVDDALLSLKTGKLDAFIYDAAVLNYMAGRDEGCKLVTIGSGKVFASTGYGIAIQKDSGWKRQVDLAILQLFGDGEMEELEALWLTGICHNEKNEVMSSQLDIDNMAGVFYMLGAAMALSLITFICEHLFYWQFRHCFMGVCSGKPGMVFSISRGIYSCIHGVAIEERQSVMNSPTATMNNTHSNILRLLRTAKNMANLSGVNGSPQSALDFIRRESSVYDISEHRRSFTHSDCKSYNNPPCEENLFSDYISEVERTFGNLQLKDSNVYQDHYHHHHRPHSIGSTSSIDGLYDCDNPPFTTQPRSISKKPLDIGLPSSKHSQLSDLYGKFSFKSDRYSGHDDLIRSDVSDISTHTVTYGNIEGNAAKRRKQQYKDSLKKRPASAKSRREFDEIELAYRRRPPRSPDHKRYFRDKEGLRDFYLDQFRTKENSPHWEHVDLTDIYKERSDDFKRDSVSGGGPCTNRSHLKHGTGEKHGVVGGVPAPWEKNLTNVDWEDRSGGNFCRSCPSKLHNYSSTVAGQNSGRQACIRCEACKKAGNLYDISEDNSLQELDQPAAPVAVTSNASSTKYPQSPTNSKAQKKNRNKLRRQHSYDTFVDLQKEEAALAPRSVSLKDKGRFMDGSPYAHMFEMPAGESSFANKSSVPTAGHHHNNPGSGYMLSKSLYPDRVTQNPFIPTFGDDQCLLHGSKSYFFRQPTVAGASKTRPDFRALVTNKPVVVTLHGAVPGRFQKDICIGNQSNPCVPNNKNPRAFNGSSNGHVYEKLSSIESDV
Sequence of hERG (Q12809 whole entry): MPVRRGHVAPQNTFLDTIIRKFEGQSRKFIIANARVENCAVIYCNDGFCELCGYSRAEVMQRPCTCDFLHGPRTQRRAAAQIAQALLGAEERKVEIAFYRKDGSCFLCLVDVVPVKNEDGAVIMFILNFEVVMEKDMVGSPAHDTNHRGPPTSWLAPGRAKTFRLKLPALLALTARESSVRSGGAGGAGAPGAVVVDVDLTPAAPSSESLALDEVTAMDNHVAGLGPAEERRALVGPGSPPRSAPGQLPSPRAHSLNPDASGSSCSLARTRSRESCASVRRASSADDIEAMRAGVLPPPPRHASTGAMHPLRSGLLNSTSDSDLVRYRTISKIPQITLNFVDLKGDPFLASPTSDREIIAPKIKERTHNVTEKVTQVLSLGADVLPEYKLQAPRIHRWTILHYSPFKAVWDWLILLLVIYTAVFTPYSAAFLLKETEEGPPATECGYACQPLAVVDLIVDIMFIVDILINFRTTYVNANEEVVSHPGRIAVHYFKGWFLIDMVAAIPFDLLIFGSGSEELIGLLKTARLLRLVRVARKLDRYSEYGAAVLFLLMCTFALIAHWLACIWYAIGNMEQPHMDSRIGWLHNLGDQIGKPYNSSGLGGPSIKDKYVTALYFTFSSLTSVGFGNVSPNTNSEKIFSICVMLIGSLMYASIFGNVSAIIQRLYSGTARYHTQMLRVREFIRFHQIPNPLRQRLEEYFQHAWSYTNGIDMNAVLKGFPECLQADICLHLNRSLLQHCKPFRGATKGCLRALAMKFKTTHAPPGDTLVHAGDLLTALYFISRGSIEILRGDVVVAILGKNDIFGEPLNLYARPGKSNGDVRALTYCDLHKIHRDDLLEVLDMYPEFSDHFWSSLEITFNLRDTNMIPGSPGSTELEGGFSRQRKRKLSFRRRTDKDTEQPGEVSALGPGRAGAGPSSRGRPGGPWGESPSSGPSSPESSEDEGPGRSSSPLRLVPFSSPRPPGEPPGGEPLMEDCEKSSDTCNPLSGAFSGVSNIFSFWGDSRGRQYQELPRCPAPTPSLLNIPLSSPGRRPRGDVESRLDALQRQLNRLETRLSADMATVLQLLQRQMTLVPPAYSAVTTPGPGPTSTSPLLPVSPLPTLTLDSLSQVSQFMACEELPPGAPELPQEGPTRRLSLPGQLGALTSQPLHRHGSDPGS

Question: With `O=C1CCCc2cc([C@H](O)CN3C[C@H]4C[C@H](Oc5ccccc5)C[C@@]4(O)C3)ccc2N1` (single isomer, unassigned) [Example 7B] as the compound, how does the pIC50 (NR2B) read?
Answer: The pIC50 was 8.72.

Question: And the efflux ratio at 120 min, 10 μM (P-glycoprotein (P-gp))?
Answer: The efflux ratio at 120 min, 10 μM was 2.07.

Question: What about the pIC50 (hERG; [1]) of the same compound?
Answer: Its pIC50 is 4.82.

Question: With `O[C@H](CN1C[C@H]2C[C@H](Oc3ccccc3F)[C@H](O)[C@@]2(O)C1)c1cnc2[nH]ccc2c1` (single isomer, unassigned) [Example 44B] as the compound, how does the pIC50 (NR2B) read?
Answer: Its pIC50 is 5.92.

Question: What about the efflux ratio at 120 min, 10 μM (P-glycoprotein (P-gp)) of the same compound?
Answer: The efflux ratio at 120 min, 10 μM was 7.34.

Question: What about the pIC50 (hERG; [1]) of the same compound?
Answer: Its pIC50 is 4.80.

Question: How did the pIC50 (NR2B) turn out when `O=C1Nc2cc(F)c([C@@H](O)CN3C[C@H]4C[C@H](Oc5ccccc5)C[C@@]4(O)C3)cc2CO1` (single isomer, unassigned) [Example 36A] was run?
Answer: The pIC50 was 9.31.

Question: And the efflux ratio at 120 min, 10 μM (P-glycoprotein (P-gp))?
Answer: Its efflux ratio at 120 min, 10 μM is 4.04.

Question: What about the pIC50 (hERG; [1]) of the same compound?
Answer: The pIC50 was 5.26.

Question: With `O=C1Nc2c(F)cc([C@H](O)CN3C[C@H]4C[C@H](Oc5ccccc5)C[C@@]4(O)C3)cc2CS1` (single isomer, unassigned) [Example 16B] as the compound, how does the pIC50 (NR2B) read?
Answer: Its pIC50 is 10.10.

Question: What about the efflux ratio at 120 min, 10 μM (P-glycoprotein (P-gp)) of the same compound?
Answer: The efflux ratio at 120 min, 10 μM was 0.75.

Question: And the pIC50 (hERG; [1])?
Answer: The pIC50 was 6.70.

Question: How did the pIC50 (NR2B) turn out when `O=C1Nc2c(F)cc([C@@H](O)CN3C[C@H]4C[C@H](Oc5ccccc5)C[C@@]4(O)C3)cc2CS1` (single isomer, unassigned) [Example 16A] was run?
Answer: The pIC50 was 10.29.

Question: What about the efflux ratio at 120 min, 10 μM (P-glycoprotein (P-gp)) of the same compound?
Answer: The efflux ratio at 120 min, 10 μM was 0.66.

Question: And the pIC50 (hERG; [1])?
Answer: The pIC50 was 6.40.

Question: How did the pIC50 (NR2B) turn out when `O=c1ccc2cc([C@@H](O)CN3C[C@H]4C[C@H](Oc5ccccc5)C[C@@]4(O)C3)ccc2[nH]1` (single isomer, unassigned) [Example 8A] was run?
Answer: Its pIC50 is 9.10.

Question: What about the efflux ratio at 120 min, 10 μM (P-glycoprotein (P-gp)) of the same compound?
Answer: Its efflux ratio at 120 min, 10 μM is 3.68.

Question: What about the pIC50 (hERG; [1]) of the same compound?
Answer: Its pIC50 is 5.55.

Question: `O=C1CCc2cc([C@@H](O)CN3C[C@H]4C[C@H](Oc5ccccc5)C[C@@]4(O)C3)ccc2N1` [Example 1A, 6-((R)-1-hydroxy-2-((3aS,5S,6aR)-3a-hydroxy-5-phenoxyhexahydrocyclopenta[c]pyrrol-2(1H)-yl)ethyl)-3,4-dihydroquinolin-2(1H)-one] was tested. Which pIC50 (NR2B) did it give?
Answer: Its pIC50 is 9.22.

Question: What about the efflux ratio at 120 min, 10 μM (P-glycoprotein (P-gp)) of the same compound?
Answer: The efflux ratio at 120 min, 10 μM was 3.02.

Question: What about the pIC50 (hERG; [1]) of the same compound?
Answer: Its pIC50 is 4.97.

Question: With `O=C1CCc2cc([C@@H](O)CN3C[C@H]4C[C@H](Oc5ccccc5)C[C@@]4(O)C3)cc(F)c2N1` (single isomer, unassigned) [Example 31A] as the compound, how does the pIC50 (NR2B) read?
Answer: Its pIC50 is 8.00.

Question: And the efflux ratio at 120 min, 10 μM (P-glycoprotein (P-gp))?
Answer: The efflux ratio at 120 min, 10 μM was 1.63.

Question: And the pIC50 (hERG; [1])?
Answer: Its pIC50 is 5.14.

Question: How did the pIC50 (hERG; Table 3, matched pairs) turn out when `O=C1CCc2cc(C(O)CN3C[C@H]4C[C@H](Oc5ccccc5F)C[C@H]4C3)ccc2N1` (mixture of isomers) [Mixture of two isomers at benzylic position, reference compound] was run?
Answer: The pIC50 was 6.30.

Question: With `O=C1CCc2cc(C(O)CN3C[C@H]4C[C@H](Oc5ccccc5F)C[C@@]4(O)C3)ccc2N1` (single isomer, unassigned) [Example 5D] as the compound, how does the “relative potency in the NR2B rat cortical neuron calcium influx assay” value (NR2B; comparison within Examples 5A/5B/5C/5D) read?
Answer: Its value is “more potent than Examples 5A and 5B”.

Question: What about the pIC50 (NR2B) of the same compound?
Answer: The pIC50 was 9.21.

Question: And the “MDCK-MDR1 ER” value (P-glycoprotein (P-gp))?
Answer: The value was 1.93.

Question: What about the pIC50 (hERG; [1]) of the same compound?
Answer: The pIC50 was 5.23.

Question: What about the pIC50 (hERG; Table 3, matched pairs) of the same compound?
Answer: The pIC50 was 5.23.

Question: Which results are given for `O=C1CCc2cc([C@H](O)CN3C[C@H]4C[C@H](Oc5ccccc5F)[C@H](O)[C@@]4(O)C3)cc(F)c2N1` (single isomer, unassigned) [Example 29B]?
Answer: pIC50 (NR2B): 7.96; efflux ratio at 120 min, 10 μM (P-glycoprotein (P-gp)): 4.24; pIC50 (hERG; [1]): 4.90

Question: Which results are given for `O=C1CCc2cc([C@H](O)CN3C[C@H]4C[C@H](Oc5ccccc5)C[C@@]4(O)C3)ccc2N1` [Example 1B, 6-((S)-1-hydroxy-2-((3aS,5S,6aR)-3a-hydroxy-5-phenoxyhexahydrocyclopenta[c]pyrrol-2(1H)-yl)ethyl)-3,4-dihydroquinolin-2(1H)-one]?
Answer: pIC50 (NR2B): 8.80; efflux ratio at 120 min, 10 μM (P-glycoprotein (P-gp)): 2.3; pIC50 (hERG; [1]): 5.12

Question: `O[C@@H](CN1C[C@H]2C[C@H](Oc3ccc(F)cc3F)C[C@@]2(O)C1)c1ccc2[nH]ncc2c1` [Example 21] was tested. Which pIC50 (NR2B) did it give?
Answer: Its pIC50 is 7.96.

Question: What about the “MDCK-MDR1 ER” value (P-glycoprotein (P-gp)) of the same compound?
Answer: The value was 1.94.

Question: And the pIC50 (hERG; [1])?
Answer: Its pIC50 is 5.44.

Question: How did the pIC50 (NR2B) turn out when `O=C1CCc2cc([C@H](O)CN3C[C@H]4C[C@H](Oc5ccccc5)C[C@@]4(O)C3)cc(F)c2N1` (single isomer, unassigned) [Example 31B] was run?
Answer: The pIC50 was 8.32.

Question: And the pIC50 (hERG; [1])?
Answer: Its pIC50 is 5.41.

Question: `O=c1[nH]c2ccc([C@H](O)CN3C[C@H]4C[C@H](Oc5ccccc5F)C[C@@]4(O)C3)cc2s1` (single isomer, unassigned) [Example 18B] was tested. Which pIC50 (NR2B) did it give?
Answer: Its pIC50 is 10.92.

Question: What about the pIC50 (hERG; [1]) of the same compound?
Answer: The pIC50 was 5.92.
